Tests used:
[1] = test system: SHIP−/− bone marrow derived macrophages; assay: LPS-stimulated TNFα production in SHIP−/− bone marrow derived macrophages; format: cell-based, mice; conditions: SHIP−/− cells, 15 μM, 10 ng/mL LPS 2 h
Procedure: Bone marrow cells were aspirated from 4 to 8 week old C57B16×129Sv mixed background mice and SHIP^+/+ and SHIP^−/− mast cells prepared as described previously. Bone marrow derived macrophages from SHIP^+/+ and SHIP^−/− mice were obtained and maintained in IMDM supplemented with 10% FCS, 150 μM MTG, 2% C127 cell conditioned medium as a source of macrophage colony stimulating factor (M-CSF) (macrophage medium)
LPS stimulation of macrophages. For the analysis of LPS-stimulated TNFα production, 2×10^5 cells were plated the night before in 24 well plates in macrophage medium. The next day, the medium was changed and AQX-016A or carrier was added to cells at the indicated concentrations for 30 min prior to the addition of 10 ng/mL LPS. Supernatants were collected for TNFα determination by ELISA (BD Biosciences, Mississauga, ON, Canada). For analysis of intracellular signaling, 2×10^6 cells were plated the night before in 6 cm tissue culture plates. […] Calcium influx was monitored by spectrofluorometry. […] Total cell lysates were then prepared and analyzed for phospho-PKB, phospho-p38^MAPK, phospho-MAPK, Grb-2 (Cell Signalling, Mississauga, Ont) and SHIP^6 by immunoblot analysis.
The target specificity and biological efficacy of AQX-016A were assessed by comparing AQX-016A's effects on PI3K-regulated processes in primary SHIP^+/+ vs SHIP^−/− macrophages and mast cells. […]

SHIP C2 domain [2] = assay: Protein lipid overlay assay, C2 domain binding to PI-3,4-P2; conditions: 4 μM Compound 100, 30 min at 23° C.
Procedure: Protein lipid overlay (PLO) assays were performed essentially as described with minor modifications. Lyophilized phosphatidylinositol-3,4-bisphosphate diC16 (PIP2, Echelon Biosciences, Salt Lake City, Utah) was reconstituted in a 2:1.8 solution of methanol and water. PVDF membranes (Millipore, Missisauga, Ont) were initially wetted in methanol for 1 minute, and washed 3×5 min with water, and gently agitated in TBST buffer (20 mM Tris pH 7.5, 0.15 M NaCl (TBS) with 0.05% Tween 20) at 23° C. overnight. Treated membranes were air-dried and dilutions of reconstituted lipids were spotted in 1 μl aliquots to give the indicated amount of PIP2 per membrane spot. Membranes were dried completely and blocked with blocking buffer (3% BSA in TBS with 0.05% NaN3) for 1 h at 23° C. Purified, recombinant C2 domain was diluted into blocking buffer (5 μM final) and treated with 4 μM Compound 100 or EtOH control for 30 min at 23° C. prior to overnight incubation with the PIP2 spotted membranes. […] After washing, bound proteins were detected and quantified on a Li-Cor Odyssey scanner (Lincoln, Nebr.).
Isolated recombinant, His6-tagged C2 domain was expressed and its PI-3,4-P2 binding ability was determined using protein lipid overlay assays. Purified C2 domain was incubated with membrane strips spotted with PI-3,4-P2 and bound protein detected using an anti-His6 antibody. […]

wild-type SHIP = assay: Scintillation proximity assay, wild-type SHIP; format: binding; conditions: SPA beads
Procedure: (§1) Compound 100 was radiolabelled with tritium by GE Healthcare (Piscataway, N.J.) to a specific activity of 42 Ci/mmole. Copper chelate (His-Tag) YSi SPA Scintillation Beads (GE ealthcare, Piscataway, N.J.) were diluted in 0.25% BSA/TBS to 1.5 mg/mL and recombinant, His6-tagged protein added at the indicated concentrations: wild-type (1 pM), ΔC2 SHIP enzyme (1 pM) or C2 domain (10 nM). Protein was allowed to bind 1 h at 23° C., and 250 μg of beads were aliquoted per well of a 96-well plate. 5 μCi of [^3H]-Compound 100 was added per well, the plate gently agitated for 30 min and the amount of bead associated radioactivity quantified by counting in a Wallac BetaPlate plate scintillation counter.
(§2) Isolated recombinant, His6-tagged C2 domain was expressed and its PI-3,4-P2 binding ability was determined using protein lipid overlay assays. Purified C2 domain was incubated with membrane strips spotted with PI-3,4-P2 and bound protein detected using an anti-His6 antibody. As shown in FIG. 11C the C2 domain bound PI-3,4-P2 and this binding was inhibited by Compound 100, consistent with both Compound 100 and PI-3,4-P2 interacting with the C2 domain at a common binding site.

SHIP C2 domain [3] = assay: Scintillation proximity assay, C2 domain; format: binding; conditions: C2 domain 10 nM on SPA beads
Procedure: as §1, §2

Structure (SMILES)	suppression of TNFα production [1] [%]	binding of C2 domain to PI-3,4-P2 (SHIP C2 domain [2])	binding of [3H]-Compound 100 to wild-type SHIP (wild-type SHIP)	binding of [3H]-Compound 100 to C2 domain (SHIP C2 domain [3])
Cc1cc(O)c(O)c2c1[C@]1(C)CCC3C(C)(C)CCC[C@]3(C)[C@H]1C2 (stereo partly shown) [AQX-016A]	15	–	–	–
Cc1cc(O)cc2c1[C@]1(C)CCC3C(C)(C)CCC[C@]3(C)[C@H]1C2 (stereo partly shown) [Compound 100]	–	inhibited	bound to wild-type SHIP	directly bind the C2 domain
